Results reported in US20060099220A1, “Antibodies against and methods for producing vaccines for respiratory syncytial virus” (MEDIMMUNE, INC., priority 2004, published 2006).
“And” between values parts separate entries of the source, which are not always exact repeats. Equal values may be shown once. Where no end group is shown, it is not given here.

B1: Numax ™: enhanced potency RSV-specific monoclonal antibody derived by in vitro affinity maturation of palivizumab (antibody, listed as Chimaera sp., V domains shown)
VH: QVTLRESGPALVKPTQTLTLTCTFSGFSLSTAGMSVGWIRQPPGKALEWLADIWWDDKKHYNPSLKDRLTISKDTSKNQVVLKVTNMDPADTATYYCARDMIFNFYFDVWGQGTTVTVSS
VL: DIQMTQSPSTLSASVGDRVTITCSASSRVGYMHWYQQKPGKAPKLLIYDTFFLDSGVPSRFSGSGSGTEFTLTISSLQPDDFATYYCFQGSGYPFTFGGGTKVEIK

Experiments:
[1] = test system: MEDI-524 Mab; assay: Isothermal titration calorimetry (ITC) of F peptides with MEDI-524 Mab; assay type: binding; conditions: 25 mM His, pH 6 at 10° C.
Experimental: To evaluate the binding properties of the wild-type peptide (SEQ ID NO.28) to Numax™/MEDI-524 by using the ITC technique. The MEDI-524 Mab was titrated with SEQ ID NO.28 in the basis buffer 25 mM His, pH 6 at 10° C. SEQ ID NO.28: (MW=2732.14, no W, Y, or C). A working solution of 55 μM was prepared by diluting 30 μL of a 5 mg/mL peptide solution with 970 μL of 25 mM His, pH 6 buffer to be used for the ITC titrations. A 1.15 μM (0.1706 mg/ml) working solution of MEDI-524 was used for the experiments (MW 148400, A280=1.47).
For this set of experiments, […] (1.16 μM-148.4 KDa) of MEDI-524 Mab and 0.088 mg/mL (1.88 μM-46.3 KDa) of MEDI-524 Fab, both in 25 mM His, pH 6.07 were used. On the other hand, 250 μL of 1 mg/mL of the different peptides dissolved in H2O, were provided by ABC. The peptides were then diluted into the appropriate volume of buffer to give a final concentration of 50 μM. The ITC experiments were run at 18° C. with the macromolecule (Mab or Fab) in the cell, by doing ˜26 injections of 10 μL of peptides, spaced 360 sec with constant stirring. The data fitting was accomplished by subtracting the average value of the few last injections as the buffer and unspecific heat of dilution contributions. […]

[2] = target: T1, MEDI-524 Fab (Homo sapiens, UniProt P01834+P01857); assay: Isothermal titration calorimetry (ITC) of F peptides with MEDI-524 Fab; assay type: binding; conditions: at 18° C., 25 mM His, pH 6.07
T1 construct: 0.088 mg/mL (1.88 μM-46.3 KDa) of MEDI-524 Fab
Experimental: For this set of experiments, […] (1.16 μM-148.4 KDa) of MEDI-524 Mab and 0.088 mg/mL (1.88 μM-46.3 KDa) of MEDI-524 Fab, both in 25 mM His, pH 6.07 were used. On the other hand, 250 μL of 1 mg/mL of the different peptides dissolved in H2O, were provided by ABC. The peptides were then diluted into the appropriate volume of buffer to give a final concentration of 50 μM. The ITC experiments were run at 18° C. with the macromolecule (Mab or Fab) in the cell, by doing ˜26 injections of 10 μL of peptides, spaced 360 sec with constant stirring. The data fitting was accomplished by subtracting the average value of the few last injections as the buffer and unspecific heat of dilution contributions. […] A note apart is the fact that the observed binding capacity (N) increases with the length of the peptide, indicating possibly an extra conformational factor in the binding event. The entropic contribution: For the peptides SEQ ID NOs.24 and 26, the entropic factor seems to be similar; the extra amino acids at the end of the N-terminal seems not to affect greatly the binding parameters. On the other hand, the elongation at the C-terminal seems to decrease slightly the binding enthalpy, the binding constant, as well as the entropic factor. […] The binding constant seems to be smaller (weaker) for both 30-mer peptides respect to the 26-mer.

[3] = target: Numax™ (Homo sapiens, UniProt P01834+P01857); assay: Biacore kinetic analysis of F peptides on captured Numax™; assay type: binding; conditions: F peptide 100 nM over captured Numax™, Biacore 3000
Experimental: All studies were performed using Sensor Chip CM5 (Biacore AB, Uppsala, Sweden) which contains a carboxymethyl (CM) dextran matrix and a Biacore® 3000 surface plasmon resonance (SPR) biosensor (Biacore AB, Uppsala, Sweden).
Numax™ was captured via a high-affinity interaction between the Fc portion of Numax™ and a goat anti-human IgG(Fc) (KPL, Inc., Gaithersburg, Md.). Goat anti-human IgG(Fc) was covalently attached to the CM dextran matrix using amine coupling chemistry. Two anti-human IgG(Fc)-specific surfaces were created. Numax™ was diluted to 10.9 μg/mL with HBS-EP and flowed for 1 min. across one of the anti-human IgG (Fc) surfaces at a flow rate of 5 μL/min. The other anti-human IgG(Fc) surface was used as a reference surface. F peptide was prepared by dilution in HBS-EP (0.01 M Hepes pH 7.4, 0.15 M NaCl, 3 mM EDTA, 0.005% surfactant P20) to a final concentration of 100 nM. F peptide was injected for 1 min. in a serial-flow manner across the reference surface and the Numax™-specific surface. Dissociation of bound F peptide was monitored for 2 min in the presence of HBS-EP. After this dissociation period, Numax™ and F peptide were removed with a 30-sec injection of 10 mM glycine pH 1.7 (Biacore AB, Uppsala, Sweden). Because of the removal of Numax™, it was necessary to create a new Numax™-specific surface prior to the injection of each F peptide.

[4] = test system: RSV MARM #13 (F protein N262K, K272Q); assay: Microneutralization assay of MARM #13; conditions: MARM #13, N262K and K272Q, selection Synagis ® then A4b4
[5] = test system: RSV MARM B2 (F protein K272M); assay: Microneutralization assay of MARM B2; conditions: selection Synagis ®
[6] = test system: RSV MARMs #6 and NuMARM3 (F protein K272E); assay: Microneutralization assay of K272E MARMs; conditions: for Neutralization of RSV: residue 272 altered from lysine (K) to glutamic acid (E)
[7] = test system: RSV MARM #10 (F protein K272E, N276Y); assay: Microneutralization assay of MARM #10; conditions: MARM #10, K272E and N276Y, selection A4b4
[8] = test system: RSV MARM B9 (F protein K272Q); assay: Microneutralization assay of MARM B9; conditions: selection Synagis ®
[9] = test system: RSV MARM B7 (F protein K272T); assay: Microneutralization assay of MARM B7; conditions: selection Synagis ®
[10] = test system: RSV MARM B1 (F protein K272N); assay: Microneutralization assay of monoclonal antibody resistant mutant (MARM) B1; conditions: selection Synagis ®
[11] = target: Numax™ (MEDI-524) (Homo sapiens, UniProt P01834+P01857); assay: Binding ELISA of F-peptides; conditions: peptide coated on plate, MEDI-524 detected with anti-human IgG-HRP
Experimental: Based in part upon the results of the MARM analysis above, F peptides were synthesized (done by AnaSpec, Inc. San Jose, Calif.). Each well of the assay plate was coated with […] of […] of a particular soluble RSV F-Peptide overnight at 2-8° C. After the plate was aspirated and washed with PBS/0.05% Tween-20 buffer, it was blocked by incubating with PBS/0.05% Tween-20/0.5% BSA buffer for one hour at ambient temperature. The plate was washed and MEDI-524 standard curve samples, test samples, MEDI-524 Reference Standard, and negative control were added to the washed plate. Following a one-hour incubation at ambient temperature, the plate was washed, and […] of a goat anti-human IgG-HRP (horseradish peroxidase) at 1:16,000 dilution was added to the plate. After washing, […] of 3,3′,5,5′-tetramethylbenzidine (TMB) substrate was then added to the plate and incubated at ambient temperature protected from light for 10 minutes. The enzymatic reaction was stopped by adding […] of 2N H2SO4, and the absorbance at 450 nm was measured using a microplate reader. […] After meeting all system suitability requirements, as well as meeting the criteria of the parallelism test, the ED50 ratio of the test sample to Reference Standard was calculated, and the results were expressed as a percentage of the Reference Standard binding activity. […]

[12] = target: RSV F protein; assay: BIAcore analysis of Numax Ref. Std.; assay type: binding; conditions: Numax reference standard
Description: BIAcore analysis can measure the kinetic interactions of anti-RSV antibodies with RSV F peptides by surface plasmon resonance using a BIAcore 1000, 2000, or 3000 instrument (Biacore, Uppsala, Sweden). Purified recombinant, C-terminally truncated F protein was covalently coupled to a (1-ethyl-3-[3-dimethylaminopropyl]carbodiimide hydrochloride)/N-hydroxysuccinimide-activated CM5 sensor chip at a low protein density (see Johnsson et al. (1991) Anal. Biochem. 198, 268-277). The unreacted active ester groups were blocked with 1 M ethanolamine. For use as a reference, when the BIAcore 2000 or 3000 instrument was used, a blank surface, containing no antigen, was prepared under identical immobilization conditions. To minimize binding variations caused by different lots of F proteins, most of the antibodies were measured against the same lot of F protein. In several cases when different lots of F proteins were used, their binding to an anti-RSV antibody was used as a reference to make sure that these lots had similar binding characteristics to the lot that is used mainly. A serial 2-fold dilution series of purified antibodies, ranging from 0.2 to 100 nm in HBS/Tween 20 buffer (BIAcore), was injected over the F-protein and reference cell surfaces, which were connected in series. In each measurement, the residual antibody was removed from the sensor chip by a brief pulse of 100 mM HCl. The binding curves were globally fitted to a 1:1 Langmuir binding model using the BIAevaluation program. This algorithm calculates both kon and koff. The apparent equilibrium dissociation constant, Kd, was deduced as the ratio of the two rate constants, koff/kon.

[13] = test system: RSV with F protein mutations at position 272 other than K272E; assay: Microneutralization assay of MARMs, other mutations at position 272; conditions: all other mutations indicated at position 272
[14] = MARM NuMARM3, K272E, selection Numax ™

Chain of Numax™ (P01857 with tags, fused parts or gaps limits assumed, other chains not shown): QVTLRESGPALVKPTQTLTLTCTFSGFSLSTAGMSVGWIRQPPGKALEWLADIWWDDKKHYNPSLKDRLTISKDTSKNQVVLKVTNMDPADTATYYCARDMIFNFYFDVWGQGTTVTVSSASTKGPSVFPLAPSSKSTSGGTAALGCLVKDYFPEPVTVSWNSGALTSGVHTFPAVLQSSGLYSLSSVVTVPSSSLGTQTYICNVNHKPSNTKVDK
T1 sequence (P01857 with tags, fused parts or gaps limits assumed, other chains not shown): as above
Chain of Numax™ (MEDI-524) (P01857 with tags, fused parts or gaps limits assumed, other chains not shown): as above

| Molecule | Ka (association constant) [2] [M⁻¹] | ΔHbinding [2] [kcal/mol] | ΔSbinding [2] | ka [3] | kd [3] | Kd [3] | Neutraliz by antibody ? [4] | Neutraliz by antibody ? [5] | Neutraliz by antibody ? ([6]; MARM #6, K272E, selection A4b4) | Neutraliz by antibody ? [6, 14] | Neutralization of RSV [6] | Neutraliz by antibody ? [7] | Neutraliz by antibody ? [8] | Neutraliz by antibody ? [9] | Neutraliz by antibody ? [10] | other results |
| --- | --- | --- | --- | --- | --- | --- | --- | --- | --- | --- | --- | --- | --- | --- | --- | --- |
| NSELLSLINDMPITNDQKKLMSNN-NH2 [SEQ ID NO.28] |  |  |  |  |  |  |  |  |  |  |  |  |  |  |  | binding strength compared to the SEQ ID NO.24 peptide [1]: ~3 orders of magnitude lower |
| NSELLSLIHDMPITNDQKKLMSNNVQIVRQ-NH2 (C-terminus assumed) [SEQ ID NO: 25] | 6.5e+06 | -10.4 | −4.7 | 2.50E+05 and 3.62E+05 | 1.81E−03 and 1.97E−03 | 7.23 nM and 5.44 nM |  |  |  |  |  |  |  |  |  |  |
| Synagis ®: humanized RSV monoclonal antibody directed against the F glycoprotein of RSV [reference compound] |  |  |  |  |  |  | No | No | No | No | longer neutralized RSV | No | No | No | No | Neutraliz by antibody ? ([4]; listed as Synagis®): lost their ability to neutralize |
| F peptide with a histidine at position 262: F peptide with histidine at position 262 tested in the Numax binding ELISA; probably SEQ ID No. 13 (NSELLSLIHDMPITNDQKKLMSNN; Derived from respiratory syncytial virus sequence) |  |  |  |  |  |  |  |  |  |  |  |  |  |  |  | Binding to Numax™ compared with wild-type F protein epitope (SEQ ID NO.1) [11]: more tightly |
| STYMLTNSELLSLIHDMPITNDQKKLMSNN-NH2 (C-terminus assumed) [SEQ ID NO: 26] | 7.1e+06 | -11.4 | −8.1 | 2.43E+05 | 5.52E−03 | 22.7 nM |  |  |  |  |  |  |  |  |  |  |
| B1 |  |  |  |  |  |  | No | Yes | No | No | longer neutralized RSV | No | Yes | Yes | Yes | Neutraliz by antibody ? ([4]; listed as Numax™): lost their ability to neutralize; Kd [12]: 0.004 nM; ka [12]: 4.70E+05; kd [12]: 1.88E−06; Neutraliz by antibody ? ([8]; listed as Numax™): did not knock out Numax™ neutralization; Ability to neutralize RSV [13]: retain its ability to neutralize |
